# Assay results as given in PubChem BioAssay AID624405 (Broad Institute, 2012).
# Inconclusive results are not listed.
# System: C2C12 myotubes + simvastatin, ATP luminescence, 48 h
# Assay: suppressors of statin myotoxicity in myotubes, dose response, cell-based, C2C12 myotubes, ATP luminescence, cherry pick (AID 624405);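 further: myotubes are challenged with simvastatin at 10 µM to lower ATP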
row,SMILES,AC40
1,CC(C)(C)NC(=O)CN(C(=O)Cn1nnc(-c2ccccc2F)n1)c1cccc2c1CCCC2,19.4 µM
2,C[C@H]1CN([C@@H](C)CO)C(=O)Cc2cc(NC(=O)CCCCCC(=O)Nc3ccccc3N)ccc2O[C@H]1CN(C)Cc1ccccc1,3.02 µM
3,O=C(C[C@H]1CC[C@@H]2[C@H](COC[C@H](O)CN2CCC(F)(F)F)O1)NCc1ccc(Oc2ccccc2)cc1,7.6 µM
4,C[C@H](CO)N1C[C@H](C)[C@@H](CN(C)Cc2ccc(Oc3ccccc3)cc2)Oc2c(NC(=O)Nc3cccc4ccccc34)cccc2C1=O,7.98 µM
5,O=c1[nH]ncc2c3ccccc3n(Cc3ccccc3)c12,5.26 µM
6,COc1cc(CNc2ncnc3c2ncn3[C@H]2CN(Cc3cccc4ccccc34)C[C@@H](CO)O2)cc(OC)c1OC,1.36 µM
7,C[C@H]1CN([C@@H](C)CO)C(=O)Cc2cc(NC(=O)CCCCCC(=O)Nc3ccccc3N)ccc2O[C@H]1CN(C)Cc1ccc(-c2ccccc2)cc1,7.68 µM
8,CCOc1ccccc1NC(=O)c1ccccc1N(C)S(C)(=O)=O,5.38 µM
9,Cc1csc(NC(=O)CSc2nc3[nH]c(=O)cc(O)c3s2)n1,4.2 µM
10,Cc1ccc(C(C(=O)NC2CCCC2)N(C(=O)Cc2cccs2)c2ccc3c(c2)OCCO3)cc1 (centres undefined),19 µM
11,COc1ccc(C#Cc2cnc3c(c2)C(=O)N([C@H](C)CO)C[C@H](C)[C@@H](CN(C)C(=O)Nc2cccc(OC)c2)O3)cc1,1.38 µM
12,O=C(/C=C/Sc1ncn[nH]1)c1ccc(Cl)cc1,6.34 µM
13,Cc1ccc(-c2nnc(CSc3nnc(COc4cccc5ccccc45)n3-c3ccccc3)o2)cc1,18.2 µM
14,C[C@H]1CN([C@@H](C)CO)S(=O)(=O)c2ccc(C#CC3CC3)cc2O[C@H]1CN(C)C(=O)Nc1cc(F)ccc1F,3.66 µM
15,COc1ccc(Nc2nc3ccc(C)cn3c(=O)c2/C=N/O)cc1,15.2 µM
16,Nc1nonc1-c1nc2ccccc2n1Cc1ccc(F)cc1Cl,0.892 µM
17,CCC(c1nnnn1C1CCCC1)N1CCN(c2ccccc2F)CC1 (centres undefined),4.11 µM
18,C[C@@H]1CN([C@@H](C)CO)C(=O)c2cccc(NC(=O)Nc3ccccc3)c2O[C@@H]1CN(C)S(=O)(=O)c1ccc(F)cc1,15.1 µM
19,CS(=O)(=O)N1CCN(C(=O)c2cc(-c3ccncc3)nc3ccc(Cl)cc23)CC1,11.4 µM
20,Cc1ccc(S(=O)(=O)Nc2ccc3c(c2)CC(=O)N([C@H](C)CO)C[C@H](C)[C@@H](CN(C)Cc2ccc4c(c2)OCO4)O3)cc1,14.1 µM
21,Cc1ccc(S(=O)(=O)Nc2ccc3c(c2)CC(=O)N([C@H](C)CO)C[C@H](C)[C@@H](CN(C)Cc2ccc(Cl)c(Cl)c2)O3)cc1,8.12 µM
22,COc1ccc(-c2csc(C(C)(O)c3ccccc3)n2)cc1OC (centres undefined),13.4 µM
23,Cc1nnsc1NC(=O)OCc1ccc(C(F)(F)F)cc1,8.84 µM

row,SMILES,AC40
1,C[C@H](CO)N1C[C@H](C)[C@H](CN(C)Cc2ccc(C(=O)Nc3ccccc3N)cc2)Oc2ccc(NC(=O)Cc3cn(C)c4ccccc34)cc2C1=O,6.08 µM
2,N#CCCCSc1nnc(CSc2nc3ccccc3s2)n1-c1ccccc1,9.75 µM
3,CC(C)(C)c1ccc(OCC(=O)N/N=C/c2cc(Br)ccc2OC(=O)c2ccco2)cc1,2.32 µM
4,CCN1C(=O)NC2=C(C(=O)c3ccccc32)C1c1ccccc1F (centres undefined),5.31 µM
5,Cc1nn2c3ccccc3n(Cc3ccccc3)c2nc1=O,19 µM
6,C[C@@H]1C[C@@H]([C@H](O)CC2CC(=O)NC(=O)C2)C(=O)[C@@H](C)C1,< 0.16 µM
7,N#C[C@@H]1[C@@H](c2ccccc2)[C@H](CO)N1S(=O)(=O)c1ccc(-c2ccccc2)cc1,8.78 µM
8,C[C@H](CO)N1C[C@H](C)[C@@H](CN(C)S(=O)(=O)c2ccc(Cl)cc2)Oc2ccc(NC(=O)NC3CCCCC3)cc2CC1=O,10.3 µM
9,C[C@H]1CN([C@@H](C)CO)C(=O)c2cc(NC(=O)Nc3cccc4ccccc34)ccc2O[C@@H]1CN(C)Cc1ccc(C(=O)Nc2ccccc2N)cc1,17.7 µM
10,CC(=O)c1cc(F)c(N2CCCC2)cc1C,17.4 µM
11,CCCC(c1nnnn1Cc1ccc(OC)cc1)N1CCN(c2ccccc2)CC1 (centres undefined),5.18 µM
12,Cc1ccc(S(=O)(=O)Nc2ccc3c(c2)CC(=O)N([C@@H](C)CO)C[C@H](C)[C@@H](CN(C)Cc2ccc(Cl)c(Cl)c2)O3)cc1,11.9 µM
13,Cc1ccc(O)c(CNc2ccccn2)c1,0.443 µM
14,OC(c1cccc(OCc2ccccc2)c1)c1nnc(-c2ccccc2)o1 (centres undefined),5.24 µM
15,CCS(=O)(=O)c1ncc(Cl)c(C(=O)Nc2ccccc2OC)n1,2.12 µM
16,C[C@@H]1CN([C@H](C)CO)C(=O)Cc2cc(NS(=O)(=O)c3cn(C)cn3)ccc2O[C@@H]1CN(C)Cc1ccc(Cl)c(Cl)c1,2.69 µM
17,CCOC(=O)N1CCN(C(=O)COc2ccc(S(=O)(=O)NC3CCCCC3)cc2C)CC1,14.1 µM
18,COc1ccc(S(=O)(=O)Nc2ccc3c(c2)OCCO3)cc1Cl,1.46 µM
19,Cc1noc(C)c1NC(=O)Nc1cccc2c1O[C@H](CN(C)Cc1ccc(-c3ccccc3)cc1)[C@@H](C)CN([C@H](C)CO)C2=O,12.6 µM
20,CC(C)C(=O)N(c1ccc2oc(=O)sc2c1)S(=O)(=O)c1ccccc1,3.85 µM
21,CCOc1[nH]n(-c2ccccc2)c(=O)c1C=Nc1ccc(Cl)cc1,11.9 µM
22,CC1CCN(c2nc3c(c(=O)[nH]c(=O)n3C)n2CCCc2ccccc2)CC1,4.71 µM
23,C[C@@H]1CN([C@@H](C)CO)C(=O)Cc2cc(NC(=O)CCCCCC(=O)Nc3ccccc3N)ccc2O[C@H]1CN(C)Cc1ccc(-c2ccccc2)cc1,10.7 µM

row,SMILES,AC40
1,C[C@H]1CN([C@@H](C)CO)C(=O)Cc2cc(NC(=O)CCCCCC(=O)Nc3ccccc3N)ccc2O[C@H]1CN(C)Cc1ccc(Oc2ccccc2)cc1,3.86 µM
2,C[C@H](CO)N1C[C@H](C)[C@H](CN(C)Cc2ccc(C(=O)Nc3ccccc3N)cc2)Oc2ccc(NC(=O)Nc3cccc4ccccc34)cc2CC1=O,10.5 µM
3,CC1(Cc2ccc(Cl)cc2)C(=O)Nc2ccc(-c3cccnc3)cc21 (centres undefined),15.8 µM
4,C[C@H]1CN([C@@H](C)CO)C(=O)Cc2cc(NS(=O)(=O)c3ccc(Cl)cc3)ccc2O[C@@H]1CN(C)CC1CCCCC1,15.1 µM
5,O=C1N2CCCc3cccc(c32)C12Nc1ccccc1S2 (centres undefined),14.5 µM
6,C[C@H]1CN([C@@H](C)CO)C(=O)c2cc(NC(=O)Cc3cn(C)c4ccccc34)ccc2O[C@H]1CN(C)Cc1ccc(C(=O)Nc2ccccc2N)cc1,3.17 µM
7,COc1ccc(S(=O)(=O)Nc2ccc3c(c2)CC(=O)N([C@H](C)CO)C[C@H](C)[C@@H](CN(C)Cc2ccc(Cl)c(Cl)c2)O3)cc1,15.9 µM
8,CC1(Cc2cccc(F)c2)C(=O)Nc2ccc(S(=O)(=O)NC3CCCCC3)cc21 (centres undefined),1.66 µM
9,O=C(CNc1cccc(F)c1)N1CCc2ccccc2C1,3.26 µM
10,C[C@@H]1CN([C@H](C)CO)C(=O)Cc2cc(NS(=O)(=O)c3ccc(Cl)cc3)ccc2O[C@H]1CN(C)CC1CCCCC1,9.96 µM
11,O=S(=O)(NCc1ccco1)c1ccc(S(=O)(=O)N2CCCCC2)cc1,5.03 µM
12,Cc1ccc(NS(=O)(=O)c2ccc(-n3cccn3)cc2)cc1C,16.1 µM
13,C[C@H]1CN([C@@H](C)CO)S(=O)(=O)c2ccc(-c3cccc(F)c3)cc2O[C@@H]1CN(C)S(=O)(=O)c1ccc(F)cc1,15.5 µM
14,C[C@H]1CN([C@@H](C)CO)S(=O)(=O)c2ccc(C#Cc3ccc(F)cc3)cc2O[C@@H]1CN(C)S(=O)(=O)c1cn(C)cn1,5.96 µM
15,O=S(=O)(c1ccccc1)c1nc(-c2ccco2)oc1N1CCCCCC1,6.08 µM
16,C[C@H](CO)N1C[C@H](C)[C@@H](CN(C)Cc2ccc(Cl)c(Cl)c2)Oc2ccc(NC(=O)C3CC3)cc2CC1=O,1.23 µM
17,C[C@H](CO)N1C[C@H](C)[C@H](CN(C)Cc2ccc3c(c2)OCO3)Oc2ccc(NC(=O)CCCCCC(=O)Nc3ccccc3N)cc2CC1=O,14.9 µM
18,Fc1ccc(-c2csc(Nc3ccccn3)n2)cc1,7.31 µM
19,Fc1ccccc1OCCCCn1cncn1,18.6 µM
20,C[C@H](CO)N1C[C@H](C)[C@@H](CN(C)Cc2ccc(Oc3ccccc3)cc2)Oc2ccc(NC(=O)C3CCCCC3)cc2CC1=O,8.63 µM
21,CN(c1ccc(Cl)cc1)c1cc(=O)n(C)c2ccccc12,< 0.16 µM
22,C[C@H](CO)N1C[C@H](C)[C@H](CN(C)CC2CCCCC2)Oc2ccc(NC(=O)CCCCCC(=O)Nc3ccccc3N)cc2CC1=O,10.1 µM
23,Cc1cccc(C)c1Nc1nnc(SCc2cc([N+](=O)[O-])cc3c2OCOC3)s1,3.85 µM
